In the supplement of paper PMC10307832:

How the values were obtained:
Assay in all cases: relative viability (nuclei count vs DMSO), 5 days (fraction); higher = more cells survive
[1] = compound: CC1CC(=O)N(C2=CN=C(N=C2N1C3CCCC3)NC4=C(C=C(C=C4)C(=O)NC5CCN(CC5)C)OC)C [NPK76-II-72-1] + COc1cccc2cc(-c3nc([C@H]4CC[C@H](C(=O)O)CC4)n4ncnc(N)c34)[nH]c12 [OSI-027] (partner 0.5 µM)
Summary of the method: (§1)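 Relative viability equals treated-well nuclei counts divided by vehicle-well nuclei counts. Counts came from 4× images of lung cancer cell lines grown in 1536-well plates for 5 days after pin-tool dosing on the day after seeding. Dosing used one drug alone or a fixed anchor-drug dose plus five library-drug doses (not always all listed) in √10 steps, and values are medians of duplicate plates.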

[2] = compound: CC1CC(=O)N(C2=CN=C(N=C2N1C3CCCC3)NC4=C(C=C(C=C4)C(=O)NC5CCN(CC5)C)OC)C [NPK76-II-72-1] + C[C@@H](Oc1cc(-c2cnn(C3CCNCC3)c2)cnc1N)c1c(Cl)ccc(F)c1Cl [Crizotinib] (partner 1 µM)
Summary of the method: as §1

[3] = compound: CC1CC(=O)N(C2=CN=C(N=C2N1C3CCCC3)NC4=C(C=C(C=C4)C(=O)NC5CCN(CC5)C)OC)C [NPK76-II-72-1] + Nc1ncn([C@H]2C[C@H](O)[C@@H](CO)O2)c(=O)n1 [Decitabine] (partner 2 µM)
Summary of the method: as §1

[4] = compound: CC[C@@H]1C(=O)N(C)c2cnc(Nc3ccc(C(=O)NC4CCN(C)CC4)cc3OC)nc2N1C1CCCC1 [BI-2536] + COc1cccc2cc(-c3nc([C@H]4CC[C@H](C(=O)O)CC4)n4ncnc(N)c34)[nH]c12 [OSI-027] (partner 0.5 µM)
Summary of the method: as §1

| Cell Line | relative viability ([1]; first compound 0.01 µM) | relative viability ([1]; first compound 0.03162 µM) | relative viability ([1]; first compound 0.1 µM) | relative viability ([1]; first compound 0.3162 µM) | relative viability ([1]; first compound 1 µM) | relative viability ([2]; first compound 0.01 µM) | relative viability ([2]; first compound 0.03162 µM) | relative viability ([2]; first compound 0.1 µM) | relative viability ([2]; first compound 0.3162 µM) | relative viability ([2]; first compound 1 µM) | relative viability ([3]; first compound 0.01 µM) | relative viability ([3]; first compound 0.03162 µM) | relative viability ([3]; first compound 0.1 µM) | relative viability ([3]; first compound 0.3162 µM) | relative viability ([3]; first compound 1 µM) | relative viability ([4]; first compound 0.01 µM) | relative viability ([4]; first compound 0.03162 µM) | relative viability ([4]; first compound 0.1 µM) | relative viability ([4]; first compound 0.3162 µM) | relative viability ([4]; first compound 1 µM) |
| --- | --- | --- | --- | --- | --- | --- | --- | --- | --- | --- | --- | --- | --- | --- | --- | --- | --- | --- | --- | --- |
| NCI-H838 | 0.323 | 0.363 | 0.385 | 0.395 | 0.442 | 0.865 | 0.952 | 0.823 | 0.734 | 0.848 | 0.495 | 0.458 | 0.455 | 0.466 | 0.476 | 0.386 | 0.444 | 0.393 | 0.146 | 0.149 |
| NCI-H1755 | 0.763 | 0.776 | 0.749 | 0.717 | 0.768 | 0.866 | 0.864 | 0.838 | 0.837 | 0.939 | 0.738 | 0.712 | 0.75 | 0.735 | 0.694 | 0.707 | 0.692 | 0.324 | 0.245 | 0.275 |
| HCC-78 | 0.511 | 0.467 | 0.356 | 0.496 | 0.404 | – | 0.33 | 0.355 | – | 0.368 | 0.711 | 0.696 | 0.549 | 0.699 | 0.653 | 0.376 | 0.359 | 0.317 | 0.363 | 0.198 |
| IA-LM | – | – | – | – | – | 0.704 | 0.818 | 0.727 | 0.616 | 0.989 | – | – | – | – | – | – | – | – | – | – |
| NCI-H322M | 0.558 | 0.593 | 0.534 | 0.56 | 0.672 | 0.968 | 0.944 | 0.868 | 0.873 | 0.983 | 0.675 | 0.711 | 0.714 | 0.743 | 0.77 | 0.52 | 0.52 | 0.37 | 0.411 | 0.305 |
| NCI-H3122 | 0.856 | 0.914 | 0.929 | 0.911 | 1.02 | 0.268 | 0.272 | 0.282 | 0.294 | 0.329 | 0.361 | 0.431 | 0.471 | 0.424 | 0.438 | 0.944 | 0.16 | 0.13 | 0.17 | 0.213 |
| COR-L23 | 0.645 | 0.858 | 0.864 | 0.775 | 0.764 | 0.73 | 0.715 | 0.738 | 0.619 | 0.647 | 0.423 | 0.473 | 0.469 | 0.384 | 0.454 | 0.864 | 0.484 | 0.216 | 0.107 | 0.139 |
| NCI-H2087 | 0.486 | 0.644 | 0.491 | 0.513 | 0.645 | 0.844 | 0.786 | 0.82 | 0.902 | 1.01 | 0.226 | 0.33 | 0.3 | 0.217 | 0.36 | 0.564 | 0.541 | 0.186 | 0.101 | 0.0808 |
| LC-2-ad | 0.768 | 0.885 | 0.826 | 0.791 | 0.954 | 0.449 | – | 0.453 | 0.44 | 0.51 | 0.715 | 0.774 | 0.809 | 0.776 | 0.864 | 0.903 | 0.743 | 0.247 | 0.283 | 0.33 |
| NCI-H1915 | 0.616 | 0.708 | 0.659 | 0.584 | 0.654 | 0.87 | 0.969 | 0.874 | 0.891 | 0.876 | 0.256 | 0.257 | 0.27 | 0.261 | 0.278 | 0.597 | 0.637 | 0.185 | 0.104 | 0.121 |
| NCI-H1793 | 0.268 | 0.322 | 0.258 | 0.27 | 0.311 | – | – | – | – | – | – | 0.542 | 0.547 | 0.409 | 0.575 | 0.271 | 0.256 | 0.143 | 0.157 | 0.136 |
| NCI-H2023 | 0.373 | 0.426 | 0.412 | 0.415 | 0.454 | 0.655 | 0.571 | 0.648 | 0.508 | 0.733 | 0.203 | 0.218 | 0.225 | 0.215 | 0.227 | 0.398 | 0.406 | 0.189 | 0.0915 | 0.0907 |
| NCI-H522 | 0.72 | 0.969 | 0.681 | 0.623 | 0.846 | – | – | – | – | – | 0.74 | 0.598 | 0.686 | – | 0.633 | 0.752 | 0.72 | 0.445 | 0.399 | 0.372 |
| NCI-H1299 | – | – | – | – | – | 0.921 | 0.911 | 0.984 | 0.932 | 0.919 | – | – | – | – | – | – | – | – | – | – |
| NCI-H1648 | 0.239 | 0.244 | – | – | 0.26 | – | – | – | – | – | 0.53 | 0.551 | 0.548 | 0.476 | 0.519 | 0.258 | 0.25 | 0.233 | 0.203 | 0.24 |
| NCI-H2342 | 0.632 | 0.572 | 0.632 | 0.435 | 0.58 | – | – | – | – | – | 0.686 | 0.694 | 0.759 | 0.668 | 0.78 | 0.664 | 0.546 | 0.598 | 0.362 | 0.367 |
| SW 900 | 0.542 | 0.475 | 0.513 | 0.601 | 0.713 | – | – | – | – | – | 0.425 | 0.407 | 0.429 | 0.504 | 0.467 | 0.6 | 0.427 | 0.456 | 0.129 | 0.132 |
| NCI-H1395 | 0.633 | 0.617 | 0.677 | 0.62 | 0.695 | – | – | – | – | – | 0.758 | 0.619 | 0.628 | 0.693 | 0.753 | 0.617 | 0.64 | 0.313 | 0.306 | 0.386 |
| A549 | – | – | – | – | – | 0.704 | 0.798 | 0.775 | 0.803 | 0.8 | 0.429 | 0.332 | 0.327 | 0.233 | 0.312 | – | – | – | – | – |
| NCI-H1563 | 0.698 | 0.804 | 0.739 | 0.749 | 0.778 | 0.875 | 0.905 | 0.84 | 0.825 | 0.932 | – | – | – | – | – | 0.811 | 0.792 | 0.704 | 0.535 | 0.541 |
